From US20090232793A1, “Elastase inhibitor and acute leukemia” (YEDA RESEARCH AND DEVELOPEMENT CO., LTD., priority 2004, published 2009)
The star is where a group is joined. MeOSuc = COC(=O)CCC(=O)*; CH2Cl = ClC*

Key:
normal CB CD34+ cells = assay: cell surface elastase expression by FACS after SDF-1; assay type: cell-based, human; conditions: SDF-1 200 ng/ml for 1 and 3 hours
Protocol: (§1) Cell surface elastase on primary AML and cell lines or on normal CB CD34+ enriched cells was analyzed by flow cytometry as follows: AML cells were incubated with polyclonal rabbit anti-human elastase (Biodesign, Kennebunkport, Me.) for 30 min., washed and antibody binding was detected using secondary anti-rabbit-FITC (FIG. 2A upper panel and 2B).
(§2) In order to confirm our assumption, primary AML cells and normal CB CD34+ cells were treated with SDF-1 (200 ng/ml) for 1 and 3 hours, and expression of cell surface elastase was determined by FACS (FIG. 7).

primary AML cells [1] = assay: as above; assay type: cell-based, human; conditions: SDF-1 200 ng/ml for 1 and 3 hours
Protocol: as §1, §2

[2] = system: AML cells, primary and cell lines; assay: in vitro transwell migration assay of AML cells; assay type: cell-based, human; conditions: for spontaneous migration: in absence of SDF-1, 30 min pre-treatment, data not shown
Protocol: (§3) (A) In vitro transwell migration assay of AML cells, either untreated or treated for 30 minutes with elastase inhibitor, 10 μg/ml EI (MeOSuc-AAPV-CMK) (A), anti elastase Abs (B) or a1-antitrypsin (a1-AT) (C). […] (D) Immunocytochemical analysis of primary AML cells on poly-L-lysine coated surfaces. Cells were pre-treated for 30 minutes with elastase inhibitor (EI) or left untreated, allowed to adhere in the absence (−) or presence of 200 ng/ml SDF-1, fixed and indirectly immunolabeled with anti-CXCR4 and anti-elastase Ab. Original magnification 100×.
Elastase inhibitor decreases SDF-1 induced migration of AML cells. To study the role of elastase in migration of AML cells, we evaluated the effect of elastase inhibition on spontaneous, or SDF-1-induced AML migration by in vitro transwell assay. The migration assay was carried out as follows: a total of […] RPMI supplemented with 10% FCS in the presence or absence of 125 ng/mL recombinant human SDF-1 (rhSDF-1) (Peprotech, Rocky Hill, N.J.) was added to the lower chamber of a Costar 24-well transwell plates with […] pore filters (Corning, N.Y.). One hundred thousand primary MNC leukemic cells or AML cell lines with or without pretreatment for 30 min. with elastase inhibitor (EI) MeOSuc-AAPV-CMK (10 μg/ml Calbiochem, La jolla, Calif.) or monoclonal mouse anti human neutrophil elastase Ab (50-100 ul of 70 μg/ml, Dako, Glostrup, Denmark) were added to the upper chamber and were allowed to migrate to the lower chamber for 4 hours at 37° C. Migrating cells were collected from the lower chamber and counted using a FACSCalibur (Becton Dickinson).

AML CXCR4 expression = assay: cell surface CXCR4 expression on AML cells by FACS; assay type: cell-based, human; conditions: data not shown
Excerpt: To test whether the decreased migration by elastase inhibition is eventually due to reduction in CXCR4 expression, we examined the effect of elastase inhibition on AML CXCR4 expression. […] Thus, it appears that the role of elastase in migration of AML cells is not working via CXCR4 regulation.

primary AML cells [3] = assay: immunocytochemical analysis of protrusions and cell polarization on poly-L-lysine; assay type: cell-based, human
Protocol: as §3
When leukemic cells were pre-treated with elastase inhibitor (EI), the formation of SDF-1 induced protrusions was prevented (FIG. 3D). Of note, basal cell polarization in absence of SDF-1 was also abolished by EI.

primary human AML cells = assay: homing of human AML cells to the BM of B2nmull NOD/SCID mice; assay type: in vivo; conditions: for homing into the NOD/SCID mice BM: 30 min incubation with EI 10 μg/ml before injection, 16 hours
Protocol: In order to assess the effect of elastase inhibition on the in vivo migration (or homing) of human AML cells to the BM, primary AML mononuclear cells (MNC) cells (5×10^6) were injected into sublethally irradiated B2nmull NOD/SCID mice, either untreated or after 30 minute incubation with EI […].
(§4) More specifically, human primary AML MNC, enriched CD34+ AML or CB cells at the indicated cell doses were suspended in […] RPMI with 10% FCS incubated for 30 minutes in 37° C. either with or without elastase inhibitor (10 μg/ml) before injection to mice via the dorsal tail vein. Mice were sacrificed 16 hours after transplantation, BM cells flushed from both femurs and tibias bones were harvested and resuspended into single-cell suspension. The percentage of human cells was determined by immunostaining with anti-human CD45-FITC mAB (Immuno Quality Products, Groningen, The Netherlands). Human Fc receptors were blocked with human plasma (1%) and murine Fc receptors by anti-mouse CD16-CD32 (Pharmingen) (1:50). Isotype control antibodies were used in order to exclude false positive cells (BD). After staining, the cells were analyzed on a FACS Calibur (BD) using Cell Quest software.

[4] = system: normal CB enriched CD34+ cells; assay: homing of normal CB CD34+ cells to the BM of B2nmull NOD/SCID mice; assay type: in vivo; conditions: normal human CD34+ enriched cells; EI pre-treated 10 μg/ml; vs untreated cells
Protocol: as §4
We next examined the homing of normal enriched CD34+ cells after elastase inhibition. In order to analyze similar primitive stem cell populations, CB CD34+ cells were compared to primary enriched CD34+ AML cells of three other patients (1.5-3×10^6) with different FAB subtypes. As with MNC cells from some patients, inhibition of primary enriched CD34+ AML cells was observed. […]

[5] = system: human primary AML MNC cells; assay: egress of engrafted primary AML cells from BM into the circulation of NOD/SCID mice; assay type: in vivo; conditions: for BM (%) human CD45+ cells / PB (%) human CD45+ cells / PB/BM: EI 1 mg x 4 days
Protocol: In order to test this assumption, primary AML cells (20-40×10^6) were injected into sublethally irradiated NOD/SCID mice to establish human AML-mice chimerism and AML egress from the bone marrow into the circulation was monitored, two-four weeks later, in mice treated with elastase inhibitor as compared to non treated mice.
(§5) More specifically, human primary AML MNC cells (10-30×10^6) or HL60 AML cell line (20×10^6) was injected into NOD/SCID mice. Two-four weeks later, EI (1 mg) was injected once a day for 4 consecutive days. PB from mice asphyxiated with dry ice was collected by cardiac aspiration in heparinized tubes and BM was collected as mentioned above. Percentage of human cells was determined by immunofluorescence for CD45 as described above.

HL60 AML cell line = assay: egress of engrafted HL60 cells from BM into the circulation of NOD/SCID mice; assay type: in vivo, human
Protocol: as §5

ML-2 = assay: proliferation, viable cells by trypan blue exclusion; assay type: cell-based, human; conditions: ML2; EI 10 μg/ml; 7 days in culture
Protocol: (§6) To test the role of elastase in proliferation of AML cells, primary AML cells (1×10^6/ml), AML cell lines (1×10^4/ml) or normal CD34+ enriched cord blood (CB) cells (1×10^5/ml) were grown in RPMI supplemented with 10% FCS with or without elastase inhibitor (10 μg/ml). The number of viable cells was determined on days 0, 1, 3, 5 and 7 using trypan blue exclusion.
(§7) The effect of EI on the proliferative rate of primary MNC AML cells and AML cell lines (ML-2, U937) was evaluated after 3-7 days respectively in culture. […] After 7 days in culture the number of ML2 and U937 was increased and cell proliferation was inhibited by culturing cells in the presence of EI (FIG. 6A).

U937 = assay: as above; assay type: cell-based, human; conditions: EI 10 μg/ml, 7 days in culture
Protocol: as §6, §7

primary AML cells [6] = assay: as above; assay type: cell-based, human; conditions: primary MNC AML cells; EI 10 μg/ml; 3 days in culture
Protocol: as §6, §7

[7] = system: normal CD34+ enriched cord blood (CB) cells; assay: proliferation and CD34+/38- percentage of normal cord blood cells; assay type: cell-based, human
Protocol: Primary AML cells, AML cell lines and human cord blood (CB) cells with or without 10 μg/ml elastase inhibitor (EI), were cultured for 3-7 days and the number of viable cells was determined using trypan blue exclusion (A). Enriched CD34+ CB cells from full term deliveries were grown in RPMI/10% FCS with SCF, FLT3L and IL6. The percentage of CD34+/38− cells from the total enriched CD34+ CB cells cultured with and without EI was determined by FACS (B).
as §6

SDF-1: chemokine, also called pre-B-cell growth-stimulating factor; recombinant human SDF-1 (Peprotech)
cell surface elastase expression (normal CB CD34+ cells): decreases
cell surface elastase expression (primary AML cells [1]): increase

MeOSuc-AAPV-CH2Cl [EI]
spontaneous migration [2]: also reduced
SDF-1 dependent migration of the cells ([2]; pre-incubation 30 min with 5-10 μg/ml EI, toward 125 ng/ml SDF-1, 4 hours, p=0.039): significantly reduced
level of cell surface CXCR4 expression (AML CXCR4 expression): did not change
formation of SDF-1 induced protrusions (primary AML cells [3]; 30 min pre-treatment, 200 ng/ml SDF-1): prevented
basal cell polarization (primary AML cells [3]; in absence of SDF-1): abolished
homing into the NOD/SCID mice BM (primary human AML cells; M2 and M4 primary AML cells, vs untreated cells): significantly decreased
homing to the murine BM (primary human AML cells; enriched CD34+ AML progenitors, EI pre-treated 10 μg/ml, vs untreated cells): decreased
homing into the NOD/SCID mice BM (primary human AML cells; primary M1 and M5 AML cells): not inhibited but rather increased
homing to the murine BM [4]: increased
AML cell egress to the PB ([5]; human primary cells, EI 1 mg once a day, 4 consecutive days, vs untreated mice): decreased
BM (%) human CD45+ cells ([5]; patient #1 M2): 80%
PB (%) human CD45+ cells ([5]; patient #1 M2): 6%
PB/BM ([5]; patient #1 M2): 0.07
BM (%) human CD45+ cells ([5]; patient #2 M4): 50%
PB (%) human CD45+ cells ([5]; patient #2 M4): 2.5%
PB/BM ([5]; patient #2 M4): 0.05
BM (%) human CD45+ cells ([5]; patient #3 M4): 12.7%
PB (%) human CD45+ cells ([5]; patient #3 M4): 0.5%
PB/BM ([5]; patient #3 M4): 0.039
BM (%) human CD45+ cells ([5]; patient #4): 16.9%
PB (%) human CD45+ cells ([5]; patient #4): 0.25%
PB/BM ([5]; patient #4): 0.014
BM (%) human CD45+ cells (HL60 AML cell line; HL-60, EI 1 mg x 4 days): 4%
PB (%) human CD45+ cells (HL60 AML cell line; HL-60, EI 1 mg x 4 days): 2.4%
PB/BM (HL60 AML cell line; HL-60, EI 1 mg x 4 days): 0.6
AML cell egress to the PB (HL60 AML cell line; human AML line, EI 1 mg once a day, 4 consecutive days, vs untreated mice): decreased
cell proliferation (ML-2): inhibited
cell proliferation (U937): inhibited
number of viable AML cells (primary AML cells [6]): significantly decreased
percentage of primitive progenitor cells CD34+/38− ([7]; 3 days in culture in the presence of cytokines (SCF, FLT3L, IL6) and EI): significantly increased
proliferation rate ([7]; normal CB CD34+ cells, EI 10 μg/ml): enhanced

a1-antitrypsin
spontaneous migration [2]: affected
